Test results from ChEMBL document CHEMBL1201862, “PubChem BioAssay data set” (2004).
The source made the active and inactive calls.

What was measured:
[1] = Luminescence Cell-Based Dose Response HTS to Identify Activators of Luciferase Translation or Activity in H4 […] Cells. [Related pubchem assays: 1829 (Project Summary), 1814 (Primary HTS)]; assay type: functional
[2] = tested on: H4; test: Luminescence Cell-Based Dose Response HTS to Identify Activators of 5'UTR Stem-Loop Driven Prion Protein mRNA Translation in H4 Neuroglioblastoma Cells. [Related pubchem assays: 1829 (Project Summary), 1814 (Primary HTS)]; assay type: functional; settings: Homo sapiens
[3] = molecular target: Large T antigen (Simian virus 40, UniProt P03070); assay type: functional, Betapolyomavirus macacae;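 further: Confirmatory-stage PubChem screen for compounds that inhibit SV40 T antigen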
[4] = molecular target: T1, Protein skinhead-1 (Caenorhabditis elegans, UniProt P34707); assay type: functional
T1 sequence (P34707 whole entry): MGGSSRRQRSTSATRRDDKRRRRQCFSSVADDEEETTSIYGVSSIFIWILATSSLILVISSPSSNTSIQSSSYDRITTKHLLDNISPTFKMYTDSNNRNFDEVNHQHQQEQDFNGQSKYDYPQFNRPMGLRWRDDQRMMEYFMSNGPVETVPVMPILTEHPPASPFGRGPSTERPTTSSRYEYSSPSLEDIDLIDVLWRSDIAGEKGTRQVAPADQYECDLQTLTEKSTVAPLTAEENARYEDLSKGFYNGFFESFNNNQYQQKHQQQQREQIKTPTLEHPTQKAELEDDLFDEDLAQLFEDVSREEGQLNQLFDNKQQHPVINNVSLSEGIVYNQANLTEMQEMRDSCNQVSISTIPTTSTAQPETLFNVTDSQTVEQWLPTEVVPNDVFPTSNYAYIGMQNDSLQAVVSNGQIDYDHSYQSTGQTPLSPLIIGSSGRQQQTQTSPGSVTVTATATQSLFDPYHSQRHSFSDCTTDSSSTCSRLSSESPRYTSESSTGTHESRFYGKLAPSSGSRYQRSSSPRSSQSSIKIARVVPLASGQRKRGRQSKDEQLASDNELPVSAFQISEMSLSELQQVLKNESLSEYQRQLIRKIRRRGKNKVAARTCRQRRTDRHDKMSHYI

[5] = molecular target: Eukaryotic translation initiation factor 4E (Mus musculus, UniProt P63073); test: blockers of eIF4G binding by eIF4E – biochemical, TR-FRET, dose response (AID 855); assay type: functional;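 further: potency for disrupting eIF4E binding to eIF4GI seen as loss of FRET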
[6] = molecular target: T2, Rac GTPase-activating protein 1 (Homo sapiens, UniProt Q9H0H5); test: blockers of MgcRacGAP-driven Rac1 GTP hydrolysis – biochemical, ADP Hunter fluorescence, primary and confirmatory, confirmation (AID 624330); assay type: functional
T2 sequence (Q9H0H5 whole entry): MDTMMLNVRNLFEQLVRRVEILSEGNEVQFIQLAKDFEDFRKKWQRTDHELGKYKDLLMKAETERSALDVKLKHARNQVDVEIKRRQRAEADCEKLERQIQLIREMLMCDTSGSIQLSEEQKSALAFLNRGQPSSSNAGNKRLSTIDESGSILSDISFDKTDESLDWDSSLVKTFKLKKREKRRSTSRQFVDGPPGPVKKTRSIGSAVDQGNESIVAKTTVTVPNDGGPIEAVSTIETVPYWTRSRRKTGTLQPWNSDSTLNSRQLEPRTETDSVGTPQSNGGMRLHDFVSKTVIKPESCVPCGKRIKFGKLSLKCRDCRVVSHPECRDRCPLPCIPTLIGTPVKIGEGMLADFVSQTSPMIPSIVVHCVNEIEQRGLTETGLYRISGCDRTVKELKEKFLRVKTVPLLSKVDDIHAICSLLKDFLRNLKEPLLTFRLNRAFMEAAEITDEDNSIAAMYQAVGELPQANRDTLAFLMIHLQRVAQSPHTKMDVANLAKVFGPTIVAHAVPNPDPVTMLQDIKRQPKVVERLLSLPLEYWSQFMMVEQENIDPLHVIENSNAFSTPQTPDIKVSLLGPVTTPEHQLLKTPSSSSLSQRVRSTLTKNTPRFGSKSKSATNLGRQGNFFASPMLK

[7] = tested on: H9c2; test: cells; assay type: functional, cell-based; settings: Rattus norvegicus, H9c2, Myocardium;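 further: confirmatory concentration-response retest of ultra-high-throughput screening hits for modulation of myocardial damage; cell death induced by hydrogen peroxide oxidative stress; compound pretreatment for 60 min then peroxide exposure for 2 h; potency is for protecting the cells against peroxide damage rather than for killing them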
[8] = molecular target: FAD-linked sulfhydryl oxidase ALR (Homo sapiens, UniProt P55789); test: ALR-catalysed DTT oxidation blockers – biochemical, H2O2 detection, luminescence, cherry-pick, dose response (AID 493248)
[9] = cells; assay type: functional
[10] = molecular target: T3, Corticotropin-releasing factor receptor 2/Corticotropin-releasing factor-binding protein (Homo sapiens, UniProt P24387+Q13324); test: Dose Response confirmation of uHTS hits for small molecule antagonists of the CRF-binding protein and CRF-R2 receptor complex.; assay type: functional; settings: read-out: IC50_Mean
T3 sequence (Q13324 whole entry): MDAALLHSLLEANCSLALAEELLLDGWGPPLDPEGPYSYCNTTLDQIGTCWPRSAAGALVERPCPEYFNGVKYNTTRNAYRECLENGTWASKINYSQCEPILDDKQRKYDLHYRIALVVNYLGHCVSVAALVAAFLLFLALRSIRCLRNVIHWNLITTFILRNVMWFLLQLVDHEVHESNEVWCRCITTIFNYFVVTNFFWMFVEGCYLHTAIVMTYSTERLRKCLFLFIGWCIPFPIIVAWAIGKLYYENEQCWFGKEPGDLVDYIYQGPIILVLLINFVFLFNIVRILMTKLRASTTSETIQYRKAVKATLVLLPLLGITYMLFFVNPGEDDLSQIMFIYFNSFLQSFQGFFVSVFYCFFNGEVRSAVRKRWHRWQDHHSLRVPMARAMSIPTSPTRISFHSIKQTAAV
T3 sequence (P24387 whole entry): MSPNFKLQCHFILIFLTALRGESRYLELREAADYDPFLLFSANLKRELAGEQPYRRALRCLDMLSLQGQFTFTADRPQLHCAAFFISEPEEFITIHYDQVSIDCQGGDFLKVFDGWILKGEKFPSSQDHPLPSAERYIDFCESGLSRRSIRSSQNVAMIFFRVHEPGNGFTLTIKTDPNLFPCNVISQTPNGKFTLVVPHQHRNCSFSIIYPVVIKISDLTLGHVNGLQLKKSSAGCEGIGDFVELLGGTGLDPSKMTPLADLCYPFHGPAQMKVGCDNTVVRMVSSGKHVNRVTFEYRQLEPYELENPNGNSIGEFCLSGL

[11] = molecular target: T3, Corticotropin-releasing factor receptor 2/Corticotropin-releasing factor-binding protein; test: activators of CRF receptor 2 with binding protein – uHTS hits, confirmation (AID 602473); assay type: functional; settings: read-out: EC50_Mean
[12] = molecular target: Cytochrome P450 2D6 (Homo sapiens, UniProt P10635);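 further: CYP2D6 member of a cytochrome P450 panel assay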
[13] = molecular target: T4, Cytochrome P450 1A2 (Homo sapiens, UniProt P05177);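 further: PubChem cytochrome P450 panel assay, CYP1A2 panel member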
T4 sequence (P05177 whole entry): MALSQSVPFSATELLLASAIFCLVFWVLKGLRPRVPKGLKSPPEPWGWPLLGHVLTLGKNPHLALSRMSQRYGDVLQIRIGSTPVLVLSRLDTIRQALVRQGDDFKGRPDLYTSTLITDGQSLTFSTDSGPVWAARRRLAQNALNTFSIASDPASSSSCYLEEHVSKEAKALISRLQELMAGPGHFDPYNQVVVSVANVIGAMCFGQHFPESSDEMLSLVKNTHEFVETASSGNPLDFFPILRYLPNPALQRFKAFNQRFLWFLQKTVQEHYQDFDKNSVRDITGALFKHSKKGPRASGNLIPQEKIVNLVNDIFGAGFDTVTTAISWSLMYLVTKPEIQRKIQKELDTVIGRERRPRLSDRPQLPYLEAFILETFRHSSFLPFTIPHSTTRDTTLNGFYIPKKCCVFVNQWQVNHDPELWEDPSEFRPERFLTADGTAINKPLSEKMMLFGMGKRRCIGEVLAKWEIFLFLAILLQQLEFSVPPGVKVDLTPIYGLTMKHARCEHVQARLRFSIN

Sequence of Eukaryotic translation initiation factor 4E (P63073 whole entry): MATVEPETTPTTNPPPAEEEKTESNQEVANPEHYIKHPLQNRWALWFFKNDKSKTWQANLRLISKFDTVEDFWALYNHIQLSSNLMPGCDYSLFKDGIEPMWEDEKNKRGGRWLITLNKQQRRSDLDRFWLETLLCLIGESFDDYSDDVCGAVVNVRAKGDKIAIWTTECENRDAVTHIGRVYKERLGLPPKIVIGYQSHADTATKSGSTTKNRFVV
Sequence of Large T antigen (P03070 whole entry): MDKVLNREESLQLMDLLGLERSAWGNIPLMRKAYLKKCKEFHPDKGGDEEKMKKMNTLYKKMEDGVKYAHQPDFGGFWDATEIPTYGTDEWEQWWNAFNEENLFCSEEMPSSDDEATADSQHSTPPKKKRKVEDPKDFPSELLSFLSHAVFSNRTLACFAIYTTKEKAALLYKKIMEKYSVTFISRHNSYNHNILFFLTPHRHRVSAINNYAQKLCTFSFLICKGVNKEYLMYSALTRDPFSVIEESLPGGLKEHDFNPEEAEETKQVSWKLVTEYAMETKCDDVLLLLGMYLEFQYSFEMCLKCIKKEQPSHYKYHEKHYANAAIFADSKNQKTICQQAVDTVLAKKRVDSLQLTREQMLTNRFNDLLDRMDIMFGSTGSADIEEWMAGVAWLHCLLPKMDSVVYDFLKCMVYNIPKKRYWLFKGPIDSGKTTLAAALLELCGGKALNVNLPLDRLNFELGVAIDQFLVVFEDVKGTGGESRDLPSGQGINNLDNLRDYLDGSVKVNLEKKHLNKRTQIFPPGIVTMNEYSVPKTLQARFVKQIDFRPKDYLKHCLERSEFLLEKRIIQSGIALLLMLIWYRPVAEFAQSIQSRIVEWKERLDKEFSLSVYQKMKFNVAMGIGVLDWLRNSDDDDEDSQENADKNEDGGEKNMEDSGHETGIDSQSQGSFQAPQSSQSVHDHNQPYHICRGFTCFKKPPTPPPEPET
Sequence of FAD-linked sulfhydryl oxidase ALR (P55789 whole entry): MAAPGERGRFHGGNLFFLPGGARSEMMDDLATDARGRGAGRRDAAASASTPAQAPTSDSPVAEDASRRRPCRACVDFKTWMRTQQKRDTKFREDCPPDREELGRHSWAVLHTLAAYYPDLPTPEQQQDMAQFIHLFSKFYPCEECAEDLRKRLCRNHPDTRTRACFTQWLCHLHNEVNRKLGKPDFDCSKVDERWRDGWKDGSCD
Sequence of Cytochrome P450 2D6 (P10635 whole entry): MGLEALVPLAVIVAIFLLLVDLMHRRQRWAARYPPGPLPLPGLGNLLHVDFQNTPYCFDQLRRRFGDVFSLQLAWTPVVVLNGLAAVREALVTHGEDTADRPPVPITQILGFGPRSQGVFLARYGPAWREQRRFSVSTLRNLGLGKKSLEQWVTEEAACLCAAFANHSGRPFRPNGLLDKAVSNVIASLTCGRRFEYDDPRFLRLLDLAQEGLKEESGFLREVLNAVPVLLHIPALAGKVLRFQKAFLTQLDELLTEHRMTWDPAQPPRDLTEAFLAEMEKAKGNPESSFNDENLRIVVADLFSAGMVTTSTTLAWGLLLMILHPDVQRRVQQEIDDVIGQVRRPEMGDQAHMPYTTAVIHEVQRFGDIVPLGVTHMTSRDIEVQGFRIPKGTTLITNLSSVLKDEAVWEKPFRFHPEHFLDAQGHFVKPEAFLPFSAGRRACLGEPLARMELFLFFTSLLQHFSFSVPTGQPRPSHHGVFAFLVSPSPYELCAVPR

For NC(=O)c1ccccc1/N=C/c1ccc2ccccc2c1, the EC50 [1] was 1.14 µM (active) and the EC50 [2] was 0.197 µM (active).
In the case of CN(C)c1ccc(NC(=O)c2ccc(N3CCOCC3)nc2)cc1, the IC50 [3] is reported as 6.98 µM (active).
For CN1CCN(c2ccc(NC(=O)c3ccc(Oc4ccccc4)cc3)cc2)CC1, the IC50 [4] was 23.6 µM (active).
In the case of O=C(CSc1nnc(-c2ccccc2)n1C1CCCCC1)Nc1ccc(S(=O)(=O)Nc2ccccn2)cc1, the IC50 [5] is reported as > 64 µM (inactive).
For COc1cc(/C=N/Nc2nc(N3CCCC3)nc(N3CCCC3)n2)ccc1O, the IC50 [3] was 15.2 µM (active) and the IC50 [6] was 64.3 µM (active).
For O=[N+]([O-])c1cc(-c2nnc(O)c3ccccc23)ccc1NCCO, the IC50 [7] was 16.6 µM (active).
In the case of Cc1ccc2c([N+](=O)[O-])c(C)ccc2n1, the IC50 [4] is reported as > 100 µM (inactive).
For CCNC(S)=Nc1cc(OCC)c(N2CCOCC2)cc1OCC, the IC50 [3] was > 100 µM (active).
With CCOc1ccc(OCC)c(NC(=O)CSCC(=O)O)c1 the IC50 [4] was > 100 µM (inactive).
In the case of CC(C)(C)n1nnnc1C(c1ccncc1)N1CCN(c2ccc(O)cc2)CC1 (centres undefined), the IC50 [3] is reported as 13.9 µM (active) and the AC50 [8] is reported as 3.48 µM (active).
In the case of CCc1ccc(NC(=O)c2ccccc2NC(=O)C2CCCO2)cc1 (centres undefined), the EC50 [2] is reported as 2.64 µM (active).
For CCOC(=O)C1=NN(C(=O)c2ccco2)C2(CC2)C1, the IC50 [7] was > 79 µM (inactive).
In the case of CCOC(=O)COc1ccc(C2CC(C)=NN2c2ccccc2)cc1 (centres undefined), the IC50 [9] is reported as 4.31 µM (active).
In the case of COC(=O)CC(=O)N1CCN(c2ccc(Cl)c(Cl)c2)CC1, the IC50 [9] is reported as 25.5 µM (active).
With O=C1CN(C(=O)c2cccs2)c2ccccc2N1 the IC50 [5] was > 64 µM (inactive).
With CCN(C(=O)c1ccco1)c1nc(-c2ccc(OC)cc2)cs1 the IC50 [4] was > 100 µM (inactive).
For COc1ccc(C(=O)ON=C(N)Cc2ccc(Cl)c(Cl)c2)cc1OC, the IC50 [10] was 7.41 µM (active) and the EC50 [11] was > 53 µM (inactive).
With CC1CN(C(=O)c2cccs2)CCN1C(=O)c1cccs1 (centres undefined) the IC50 [4] was > 100 µM (inactive).
For CCNc1nc(NC(C)CC)nc(Oc2ccc(OCC)nn2)n1 (centres undefined), the IC50 [10] was > 47.1 µM (inactive) and the EC50 [11] was > 53 µM (inactive).
For Cc1ccc(S(=O)(=O)Nc2cc(O)nc(SCC(=O)Nc3cccc(C(F)(F)F)c3)n2)cc1, the IC50 [10] was > 47.1 µM (inactive) and the EC50 [11] was > 53 µM (inactive).
In the case of CC1C(=O)C(C)C(c2cc(Br)ccc2O)NC1c1cc(Br)ccc1O (centres undefined), the IC50 [10] is reported as > 47.1 µM (inactive) and the EC50 [11] is reported as > 53 µM (inactive).
With Cc1sc2nc(CSCC(=O)N(CCC#N)c3ccccc3F)nc(O)c2c1C the IC50 [7] was > 79 µM (inactive).
With CN(C)c1ccc(NC(=O)CSc2nc3c(c(=O)[nH]2)CCCC3)cc1 the IC50 [3] was 5.87 µM (active).
With CN1CCC(O)(c2ccccc2)C(C(=O)c2ccccc2)C1 (centres undefined) the IC50 [9] was 36.1 µM (active).
For CCC(=O)c1ccc(OCC(=O)OCC(=O)c2cc(C)n(C3CC3)c2C)cc1, the IC50 [9] was 9.8 µM (active).
For O=C1CCc2nc3ccccc3c(=O)n2N1, the IC50 [10] was > 47.1 µM (inactive) and the EC50 [11] was > 53 µM (inactive).
In the case of O=C(CCn1nc(-c2ccccc2)ccc1=O)N1CCOCC1, the IC50 [10] is reported as > 47.1 µM (inactive) and the EC50 [11] is reported as > 53 µM (inactive).
For Cc1cc(N2CCOCC2)n2nc(C)c(-c3ccccc3)c2n1, the IC50 [5] was > 64 µM (inactive).
In the case of CCCCOc1ccc(C(=O)N/C(=C\c2ccc(OC)cc2)C(=O)OCc2ccco2)cc1, the IC50 [7] is reported as > 79 µM (inactive), the AC50 [12] is reported as 7.94 µM (inconclusive) and the AC50 [13] is reported as 14.1 µM (inconclusive).
In the case of COCc1c(C(=O)Nc2ccc3nc(N4CCOCC4)sc3c2)oc2ccccc12, the IC50 [7] is reported as > 79 µM (inactive).
In the case of CCOC(=O)N1CCN(C(=O)CSc2nnc(CNC(=O)c3ccccc3F)o2)CC1, the IC50 [10] is reported as > 47.1 µM (inactive) and the EC50 [11] is reported as > 53 µM (inactive).
In the case of O=C(NCCN1C(=O)C2C3C=CC(C3)C2C1=O)Nc1ccccc1O (centres undefined), the IC50 [4] is reported as > 100 µM (inactive).
For O=C(NCCO)c1cccc(-c2ccc3nncn3c2)c1, the IC50 [4] was > 100 µM (inactive).
For CCO/C(O)=C1/C(C)=NC(SCC(=O)OC)=C(C#N)C1c1ccc(C(=O)OC)cc1 (centres undefined), the IC50 [10] was < 0.368 µM (active) and the EC50 [11] was > 53 µM (inactive).
With COc1cc(-c2cc3nc(NCCOc4ccccc4)ccn3n2)cc(OC)c1OC the IC50 [7] was > 79 µM (inactive).
In the case of Sc1nnc(-c2ccco2)n1/N=C/c1ccc(Br)s1, the IC50 [5] is reported as > 64 µM (inactive).
For COc1cc(OC)cc(OC(=O)c2ccc3c(=O)n4c(nc3c2)CCC4)c1, the IC50 [9] was 9.14 µM (active).
For c1cc2c(nn1)CCc1nonc1-2, the IC50 [4] was > 100 µM (inactive).
For O=C(c1ccccc1)c1cnc2cc3c(cc2c1O)OCCO3, the IC50 [4] was > 100 µM (inactive).
In the case of Cc1cccc([N+]2=C3CCCCN3C(O)(c3cccs3)C2)c1 (centres undefined), the IC50 [10] is reported as > 47.1 µM (inactive) and the EC50 [11] is reported as > 53 µM (inactive).
